This note sets out measurements from PubChem BioAssay AID651895 (Broad Institute, 2012).

Activity calls are given as the source filed them.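 The calls were made as follows: active = IC50 under 100 times the reference toxin's IC50 in the same rat muscle cell viability test; inactive = the rest.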

The experiment relates to L-6 rat myoblast viability, Alamar blue, 72 h. As to the kind of experiment: L-6 rat myoblast cytotoxicity, dose response, counter-screen for T. cruzi inhibitor project, cell-based, plate reader, dry powder (AID 651895). Background: The purpose of a counterscreen is to sort out artefacts and off-target activity.

By IC50 is commonly meant the concentration needed to halve the response being measured. For `C[C@@H]1CN([C@@H](C)CO)C(=O)c2cccc(NC(=O)c3ccncc3)c2O[C@H]1CN(C)Cc1ccc(Oc2ccccc2)cc1`, the IC50 was 14.8 µM (inactive).
